Like-named read-outs stand apart in the source and are kept apart here. Marks after values point to notes of the source that are not given here.
Columns and labels:
[1] = target: wild type human RORγt ligand binding domain (RORγt LBD) (Homo sapiens (Human), UniProt P51449); conditions: read-out: ThermoFluor® Assay, Kd
Method: This approach is applicable to a wide variety of systems, and rigorous in theoretical interpretation through quantitation of equilibrium binding constants (KD).
The shift in the melting point described as a ΔTm is proportional to the concentration and affinity of the ligand.
RORγt ThermoFluor® Assay Construct
ThermoFluor® experiments were carried out using instruments owned by Janssen Research and Discovery, L.L.C. through its acquisition of 3-Dimensional Pharmaceuticals, Inc. 1,8-ANS (Invitrogen) was used as a fluorescent dye. Protein and compound solutions are dispensed into black 384-well polypropylene PCR microplates (Abgene) and overlayed with silicone oil (1 μL, Fluka, type DC 200) to prevent evaporation.
Fluorescence was measured by continuous illumination with UV light (Hamamatsu LC6) supplied via fiber optic and filtered through a band-pass filter (380-400 nm; >6 OD cutoff). Fluorescence emission of the entire 384-well plate was detected by measuring light intensity using a CCD camera (Sensys, Roper Scientific) filtered to detect 500±25 nm, resulting in simultaneous and independent readings of all 384 wells. Images were collected at each temperature, and the sum of the pixel intensity in a given area of the assay plate was recorded versus temperature. Reference wells contained RORγt without compounds, and the assay conditions were as follows: • 0.065 mg/mL RORγt • 60 μM 1,8-ANS • 100 mM Hepes, pH 7.0 • 10 mM NaCl • 2.5 mM GSH • 0.002% Tween-20

full-length human RORγt [2] = target: T1, full-length human RORγt (Homo sapiens (Human), UniProt P51449); type: cell-based; conditions: for IC50: HEK293T cells, Conditions A, read-out: RORγt (FL) Reporter Assay A, IC50
Method: (§1) RORγt (full-length human) Reporter Assay:
Luminescence was measured using a BMG LUMIstar OPTIMA plate reader, after addition of 75 μL/well firefly luciferase buffer, followed by 75 μL/well Renilla luciferase buffer.

full-length human RORγt [3] = target: T1, full-length human RORγt; conditions: for IC50: read-out: RORγt (FL) Reporter Assay B or C, IC50, HEK293T cells, Conditions B or C
Description: as §1
All three provide similar data and can be used interchangeably.

[4] = system: IL-17 production by CD4 T cells; test: Human Th17 Assay; type: cell-based; conditions: 72 h, read-out: Human Th17 Assay, IC50
Description: Human Th17 Assay The human Th17 assay tests the effect of RORγt modulatory compounds on IL-17 production by CD4 T cells under conditions which favor Th17 differentiation. Total CD4+ T cells were isolated from the peripheral blood mononuclear cells (PBMC) of healthy donors using a CD4+ T cell isolation kit II, following the manufacturer's instructions (Miltenyi Biotec). […] The final concentrations of antibodies and cytokines (R&D Systems) in differentiation medium were: 3×10^6/mL anti-CD3/CD28 beads (prepared using human T cell activation/expansion kit, Miltenyi Biotec), 10 μg/mL anti-IL4, 10 μg/mL anti-IFNγ, 10 ng/mL IL113, 10 ng/mL IL23, 50 ng/mL IL6, 3 ng/mL TGFβ and 20 U/mL IL2. Cells were cultured at 37° C. and 5% CO2 for 3 days. Supernatants were collected and the accumulated IL-17 in culture was measured by using MULTI-SPOT® Cytokine Plate following manufacture's instruction (Meso Scale Discovery). The plate was read using Sector Imager 6000, and IL-17 concentration was extrapolated from the standard curve. The IC50s were determined by GraphPad.

[5] = *** 0.67 μM compound concentration

T1 sequence (P51449 other isoform, or with tags, fused parts or gaps): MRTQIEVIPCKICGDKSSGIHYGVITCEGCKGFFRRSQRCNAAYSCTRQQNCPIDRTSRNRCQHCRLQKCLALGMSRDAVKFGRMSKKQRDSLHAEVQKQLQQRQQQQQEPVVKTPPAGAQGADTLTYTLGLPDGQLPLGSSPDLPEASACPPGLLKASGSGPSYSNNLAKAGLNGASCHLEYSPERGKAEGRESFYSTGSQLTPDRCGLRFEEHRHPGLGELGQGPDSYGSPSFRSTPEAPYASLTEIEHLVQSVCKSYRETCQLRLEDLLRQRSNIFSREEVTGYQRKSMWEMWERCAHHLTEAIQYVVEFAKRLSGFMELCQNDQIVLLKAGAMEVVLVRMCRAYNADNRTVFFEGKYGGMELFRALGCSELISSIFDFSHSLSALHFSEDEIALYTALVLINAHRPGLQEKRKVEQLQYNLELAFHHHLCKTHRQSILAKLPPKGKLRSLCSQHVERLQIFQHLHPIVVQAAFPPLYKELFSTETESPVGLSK
Sequence of wild type human RORγt ligand binding domain (RORγt LBD) (P51449 other isoform, or with tags, fused parts or gaps): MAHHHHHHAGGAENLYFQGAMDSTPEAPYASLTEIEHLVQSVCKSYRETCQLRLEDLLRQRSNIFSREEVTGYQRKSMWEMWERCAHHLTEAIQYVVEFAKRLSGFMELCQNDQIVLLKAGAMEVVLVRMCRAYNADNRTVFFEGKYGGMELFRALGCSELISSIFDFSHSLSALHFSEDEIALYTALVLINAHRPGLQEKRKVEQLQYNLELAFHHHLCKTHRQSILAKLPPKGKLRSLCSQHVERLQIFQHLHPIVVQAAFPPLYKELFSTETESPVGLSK

Compound | Kd [1] [nM] | IC50 (full-length human RORγt [2]) [nM] | RORγt (FL) Reporter Assay A, % inhibition (full-length human RORγt [2]; ** 2 μM compound concentration) | other results
C[C@H]1CC(F)(F)CN1C(=O)c1nc(C(=O)NCC(C)(C)O)sc1-c1ccc(C(O)(C(F)(F)F)C(F)(F)F)c(Cl)c1Cl [Example 2/2, (S)-5-(2,3-Dichloro-4-(1,1,1,3,3,3-hexafluoro-2-hydroxypropan-2-yl)phenyl)-4-(4,4-difluoro-2-methylpyrrolidine-1-carbonyl)-N-(2-hydroxy-2-methylpropyl)thiazole-2-carboxamide] | 0.22 | 10 |  | RORγt (FL) Reporter Assay A, % inhibition (full-length human RORγt [2]; [5]): 101*** %
C[C@H]1CCCN1C(=O)c1nc(C(=O)NCC(C)(C)O)sc1-c1ccc(C(O)(C(F)(F)F)C(F)(F)F)cc1Cl [Example 15/10, (S)-5-(2-Chloro-4-(1,1,1,3,3,3-hexafluoro-2-hydroxypropan-2-yl)phenyl)-N-(2-hydroxy-2-methylpropyl)-4-(2-methylpyrrolidine-1-carbonyl)thiazole-2-carboxamide] | 0.26 |  |  | RORγt (FL) Reporter Assay B or C, % inhibition (full-length human RORγt [3]; * 3 μM compound concentration): 97* %; IC50 (full-length human RORγt [3]): 7.9 nM
C[C@H]1C[C@@H](F)CCN1C(=O)c1nc(C(=O)NCC(C)(C)O)sc1-c1ccc(C(O)(C(F)(F)F)C(F)(F)F)c(Cl)c1Cl [Example 2/1, 5-(2,3-Dichloro-4-(1,1,1,3,3,3-hexafluoro-2-hydroxypropan-2-yl)phenyl)-4-((2S,4S)-4-fluoro-2-methylpiperidine-1-carbonyl)-N-(2-hydroxy-2-methylpropyl)thiazole-2-carboxamide] | 0.16 | 14 | 103** % | 
C[C@H]1CCCN1C(=O)c1nc(C(=O)NCC(C)(C)O)sc1-c1ccc(C(O)(C(F)(F)F)C(F)(F)F)c(Cl)c1Cl [Example 2/8, (S)-5-(2,3-Dichloro-4-(1,1,1,3,3,3-hexafluoro-2-hydroxypropan-2-yl)phenyl)-N-(2-hydroxy-2-methylpropyl)-4-(2-methylpyrrolidine-1-carbonyl)thiazole-2-carboxamide] |  |  | 103** % | RORγt (FL) Reporter Assay B or C, % inhibition (full-length human RORγt [3]; ** 2 μM compound concentration): 108** %; IC50 [4]: 17 nM
C[C@@H]1CCCN1C(=O)c1nc(C(=O)NCC(C)(C)O)sc1-c1ccc(C(O)(C(F)(F)F)C(F)(F)F)c(Cl)c1Cl [Example 2/16, (R)-5-(2,3-dichloro-4-(1,1,1,3,3,3-hexafluoro-2-hydroxypropan-2-yl)phenyl)-N-(2-hydroxy-2-methylpropyl)-4-(2-methylpyrrolidine-1-carbonyl)thiazole-2-carboxamide] |  |  | 86** % | 
O=C(NC1CS(=O)(=O)C1)c1nc(C(=O)N2CCC(F)CC2)c(-c2ccc(C(O)(C(F)(F)F)C(F)(F)F)c(Cl)c2Cl)s1 [Example 6/1, 5-(2,3-Dichloro-4-(1,1,1,3,3,3-hexafluoro-2-hydroxypropan-2-yl)phenyl)-N-(1,1-dioxidothietan-3-yl)-4-(4-fluoropiperidine-1-carbonyl)thiazole-2-carboxamide] |  |  |  | IC50 [4]: 42 nM
Cc1cc(C(O)(C(F)(F)F)C(F)(F)F)ccc1-c1sc(C(=O)NCC(C)(C)O)nc1C(=O)N1CCC[C@@H]1C [Example 19, (S)-5-(4-(1,1,1,3,3,3-Hexafluoro-2-hydroxypropan-2-yl)-2-methylphenyl)-N-(2-hydroxy-2-methylpropyl)-4-(2-methylpyrrolidine-1-carbonyl)thiazole-2-carboxamide] |  |  |  | IC50 ([4]; IL-17 in supernatant, 3 days culture): 55 nM
C[C@H]1CC(F)(F)CN1C(=O)c1nc(C(=O)N2C[C@H](O)C[C@H](O)C2)sc1-c1ccc(C(O)(C(F)(F)F)C(F)(F)F)cc1C(F)(F)F [Example 9/1, ((S)-4,4-Difluoro-2-methylpyrrolidin-1-yl)(2-((3R,5S)-3,5-dihydroxypiperidine-1-carbonyl)-5-(4-(1,1,1,3,3,3-hexafluoro-2-hydroxypropan-2-yl)-2-(trifluoromethyl)phenyl)thiazol-4-yl)methanone] |  |  |  | IC50 [4]: 13 nM
CCN(CC)C(=O)c1nc(C(=O)N2C[C@H](O)C[C@H](O)C2)sc1-c1ccc(C(O)(C(F)(F)F)C(F)(F)F)c(Cl)c1Cl [Example 3/4] | 10 | 14 | 100** % | 
C[C@H]1CCCN1C(=O)c1nc(C(=O)NCC(C)(C)O)sc1-c1ccc(C(O)(C(F)(F)F)C(F)(F)F)cc1C(F)F [Example 15, (S)-5-(2-(Difluoromethyl)-4-(1,1,1,3-hexafluoro-2-hydroxypropan-2-yl)phenyl)-N-(2-hydroxy-2-methylpropyl)-4-(2-methylpyrrolidine-1-carbonyl)thiazole-2-carboxamide] |  |  |  | IC50 [4]: 47 nM
CCN(C(=O)c1nc(C(=O)NCC(C)(C)O)sc1-c1ccc(C(O)(C(F)(F)F)C(F)(F)F)c(Cl)c1Cl)C1CCC1 [Example 2/15, N^4—Cyclobutyl-5-(2,3-dichloro-4-(1,1,1,3,3,3-hexafluoro-2-hydroxypropan-2-yl)phenyl)-N^4-ethyl-N2-(2-hydroxy-2-methylpropyl)thiazole-2,4-dicarboxamide] | 0.18 | 5 |  | RORγt (FL) Reporter Assay A, % inhibition (full-length human RORγt [2]; [5]): 106*** %
CC(C)(O)CNC(=O)c1nc(C(=O)N2CCC(F)CC2)c(-c2ccc(C(O)(C(F)(F)F)C(F)(F)F)c(Cl)c2Cl)s1 [Example 2/10, 5-(2,3-Dichloro-4-(1,1,1,3,3,3-hexafluoro-2-hydroxypropan-2-yl)phenyl)-4-(4-fluoropiperidine-1-carbonyl)-N-(2-hydroxy-2-methylpropyl)thiazole-2-carboxamide] | 13 | 25 | 105** % | 
Cc1cc(C(O)(C(F)(F)F)C(F)(F)F)ccc1-c1sc(C(=O)NCC(C)(C)O)nc1C(=O)N1CCCC[C@@H]1C [Example 21/2, (S)-5-(4-(1,1,1,3,3,3-Hexafluoro-2-hydroxypropan-2-yl)-2-methylphenyl)-N-(2-hydroxy-2-methylpropyl)-4-(2-methylpiperidine-1-carbonyl)thiazole-2-carboxamide] | 0.21 |  |  | RORγt (FL) Reporter Assay B or C, % inhibition (full-length human RORγt [3]; * 3 μM compound concentration): 101* %; IC50 (full-length human RORγt [3]): 3.9 nM
CN(C(=O)c1nc(C(=O)NCC(C)(C)O)sc1-c1ccc(C(O)(C(F)(F)F)C(F)(F)F)c(Cl)c1Cl)C1CCC1 [Example 2/13, N^4—Cyclobutyl-5-(2,3-dichloro-4-(1,1,1,3,3,3-hexafluoro-2-hydroxypropan-2-yl)phenyl)-N^Z-(2-hydroxy-2-methylpropyl)-N^4-methylthiazole-2,4-dicarboxamide] | 0.43 | 10 |  | RORγt (FL) Reporter Assay A, % inhibition (full-length human RORγt [2]; [5]): 103*** %

Source: patent US10150762B2, “Trifluoromethyl alcohols as modulators of RORγt” (Janssen Pharmaceutica NV, priority 2014, dated 2018)
